Measured values published in patent publication US9539260B2, “Dihydro-benzo-oxazine and dihydro-pyrido-oxazine derivatives” (Novartis AG, priority 2012, dated 2017).

Key:
PI3K alpha = PI3K alpha (Homo sapiens (Human), UniProt P42336); assay: Enzymatic PI3K alpha isoform inhibition (lipid kinase activity, Kinase-Glo luminescence); assay type: biochemical; settings: Enzymatic assay
Experimental: (§1) 1.1 Test of Lipid Kinase Activity […]
(§2) In a more preferred assay, the kinase reaction is performed in a final volume of 10 μl per well of a low volume non-binding CORNING, 384 well black plate (Cat. No. #3676). The final concentrations of ATP and phosphatidyl inositol (PI) in the assay are 1 μM and 10 μg/mL, respectively. The reaction is started by the addition of ATP.
(§3) The components of the assay are added per well as follows:
(§4) The Z′ value is a universal measurement of the robustness of an assay. A Z′ between 0.5 and 1.0 is considered an excellent assay.
(§5) IC50 is determined by a four parameter curve fitting routine that comes along with “excel fit”. A four parameter logistic equation is used to calculate IC50 values (IDBS XLfit) of the percentage inhibition of each compound at 8 concentrations (usually 10, 3.0, 1.0, 0.3, 0.1, 0.030, 0.010 and 0.003 μM). Alternatively, IC50 values are calculated using idbsXLfit model 204, which is a 4 parameter logistic model.
(§6) Yet alternatively, for an ATP depletion assay, compounds of the formula I to be tested are dissolved in DMSO and directly distributed into a white 384-well plate at 0.5 μl per well. To start the reaction, 10 μl of 10 nM PI3 kinase and 5 μg/mL 1-alpha-phosphatidylinositol (PI) are added into each well followed by 10 μl of 2 μM ATP. The reaction is performed until approx 50% of the ATP is depleted, and then stopped by the addition of 20 μl of Kinase-Glo solution (Promega Corp., Madison, Wis., USA). The stopped reaction is incubated for 5 minutes and the remaining ATP is then detected via luminescence. IC50 values are then determined.

PI3K delta = PI3K delta (Homo sapiens (Human), UniProt O00329); assay: Enzymatic PI3K delta isoform inhibition (lipid kinase activity, Kinase-Glo luminescence); assay type: biochemical; settings: Enzymatic assay
Experimental: as §1, §2, §3, §4, §5, §6

Sequence of PI3K delta (O00329 other isoform, or with tags, fused parts or gaps linker GGGGGG): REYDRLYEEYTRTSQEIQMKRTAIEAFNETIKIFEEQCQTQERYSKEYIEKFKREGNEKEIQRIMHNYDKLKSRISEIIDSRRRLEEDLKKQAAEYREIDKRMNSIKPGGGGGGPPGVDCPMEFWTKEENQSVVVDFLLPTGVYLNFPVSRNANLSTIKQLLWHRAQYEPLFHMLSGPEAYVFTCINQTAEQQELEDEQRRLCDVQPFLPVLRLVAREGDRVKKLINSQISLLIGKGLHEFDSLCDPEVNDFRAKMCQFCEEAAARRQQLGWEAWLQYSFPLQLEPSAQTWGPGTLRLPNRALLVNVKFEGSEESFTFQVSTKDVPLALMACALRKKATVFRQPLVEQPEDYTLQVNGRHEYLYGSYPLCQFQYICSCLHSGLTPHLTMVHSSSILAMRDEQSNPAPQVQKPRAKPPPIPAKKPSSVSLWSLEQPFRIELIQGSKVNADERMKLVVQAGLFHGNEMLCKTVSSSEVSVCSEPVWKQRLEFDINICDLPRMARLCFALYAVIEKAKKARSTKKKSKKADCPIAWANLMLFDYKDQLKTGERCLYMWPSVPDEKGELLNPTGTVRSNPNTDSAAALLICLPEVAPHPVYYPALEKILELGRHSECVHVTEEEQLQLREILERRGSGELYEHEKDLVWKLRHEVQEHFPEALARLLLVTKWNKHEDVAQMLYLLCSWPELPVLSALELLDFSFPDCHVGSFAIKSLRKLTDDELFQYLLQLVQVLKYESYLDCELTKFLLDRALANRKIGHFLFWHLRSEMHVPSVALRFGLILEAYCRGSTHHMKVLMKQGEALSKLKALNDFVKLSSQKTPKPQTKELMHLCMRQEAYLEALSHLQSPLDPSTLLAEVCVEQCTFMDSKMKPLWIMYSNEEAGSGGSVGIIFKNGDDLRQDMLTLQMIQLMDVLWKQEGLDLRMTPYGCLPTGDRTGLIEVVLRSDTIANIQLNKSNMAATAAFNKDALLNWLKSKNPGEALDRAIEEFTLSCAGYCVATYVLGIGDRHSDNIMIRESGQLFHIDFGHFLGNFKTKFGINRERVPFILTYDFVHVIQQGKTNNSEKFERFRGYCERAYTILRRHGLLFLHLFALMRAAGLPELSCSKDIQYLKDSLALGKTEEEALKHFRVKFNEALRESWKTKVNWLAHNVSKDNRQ
Sequence of PI3K alpha (P42336 other isoform, or with tags, fused parts or gaps): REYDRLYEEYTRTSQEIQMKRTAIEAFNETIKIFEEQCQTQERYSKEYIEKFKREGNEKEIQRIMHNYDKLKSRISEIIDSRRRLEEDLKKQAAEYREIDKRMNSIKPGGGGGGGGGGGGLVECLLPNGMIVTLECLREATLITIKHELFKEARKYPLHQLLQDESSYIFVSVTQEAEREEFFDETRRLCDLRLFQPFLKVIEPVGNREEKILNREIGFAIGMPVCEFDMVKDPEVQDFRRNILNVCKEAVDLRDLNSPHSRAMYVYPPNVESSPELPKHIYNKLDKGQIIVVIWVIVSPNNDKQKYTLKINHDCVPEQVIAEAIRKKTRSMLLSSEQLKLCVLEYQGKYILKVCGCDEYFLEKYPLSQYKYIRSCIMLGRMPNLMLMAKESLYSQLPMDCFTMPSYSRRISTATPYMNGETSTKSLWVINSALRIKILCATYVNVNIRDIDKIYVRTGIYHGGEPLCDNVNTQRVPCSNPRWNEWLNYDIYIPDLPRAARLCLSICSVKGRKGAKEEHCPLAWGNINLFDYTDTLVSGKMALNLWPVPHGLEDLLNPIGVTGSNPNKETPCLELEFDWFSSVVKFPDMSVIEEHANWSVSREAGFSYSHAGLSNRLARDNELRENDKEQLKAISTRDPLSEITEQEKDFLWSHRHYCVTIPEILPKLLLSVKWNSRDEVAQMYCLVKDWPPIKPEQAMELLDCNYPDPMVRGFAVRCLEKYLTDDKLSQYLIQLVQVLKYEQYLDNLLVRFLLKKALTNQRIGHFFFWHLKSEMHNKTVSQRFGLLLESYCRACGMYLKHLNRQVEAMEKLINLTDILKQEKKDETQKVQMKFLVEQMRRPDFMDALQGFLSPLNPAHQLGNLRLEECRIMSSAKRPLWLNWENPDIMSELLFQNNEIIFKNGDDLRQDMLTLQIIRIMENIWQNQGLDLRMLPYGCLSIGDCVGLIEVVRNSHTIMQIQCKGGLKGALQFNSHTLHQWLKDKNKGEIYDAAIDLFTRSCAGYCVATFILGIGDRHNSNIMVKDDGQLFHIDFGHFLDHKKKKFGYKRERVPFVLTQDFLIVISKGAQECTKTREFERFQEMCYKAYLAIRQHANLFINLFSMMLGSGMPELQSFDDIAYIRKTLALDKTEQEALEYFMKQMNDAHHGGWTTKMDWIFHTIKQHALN

| Compound | IC50 (PI3K alpha) [nM] | IC50 (PI3K delta) [nM] |
| --- | --- | --- |
| COc1ccc(N2CCOc3ccc(O[C@H]4CCN(C(=O)CN5CCOCC5)C4)cc32)cn1 [Example D2, 1-{(S)-3-[4-(6-Methoxy-pyridin-3-yl)-3,4-dihydro-2H-benzo[1,4]oxazin-6-yloxy]-pyrrolidin-1-yl}-2-morpholin-4-yl-ethanone] | 2740 | 149 |
| COc1ncc(N2CCOc3ccc(O[C@H]4CCN(C(=O)C5CCN(C(C)=O)CC5)C4)cc32)cc1C#N [Example D5, 5-{6-[(S)-1-(1-Acetyl-piperidine-4-carbonyl)-pyrrolidin-3-yloxy]-2,3-dihydro-benzo[1,4]oxazin-4-yl}-2-methoxy-nicotinonitrile] | 802 | 42 |
| COc1ncc(N2CCOc3ccc(O[C@H]4CCN(C(=O)c5cnn(C)c5)C4)cc32)cc1C#N [Example D27, 2-Methoxy-5-{6-[(S)-1-(1-methyl-1H-pyrazole-4-carbonyl)-pyrrolidin-3-yloxy]-2,3-dihydro-benzo[1,4]oxazin-4-yl}-nicotinonitrile] | 1570 | 64 |
| CCC(=O)N1CC[C@H](Oc2ccc3c(c2)N(c2cnc(OC)c(Cl)c2)CCO3)C1 [Example A12, 1-{(S)-3-[4-(5-Chloro-6-methoxy-pyridin-3-yl)-3,4-dihydro-2H-benzo[1,4]oxazin-6-yloxy]-pyrrolidin-1-yl}-propan-1-one] | 182 | 3 |
| COc1ncc(N2CCOc3ccc(O[C@H]4CCN(C(=O)c5ccnn5C)C4)cc32)cc1C#N [Example C8, 2-Methoxy-5-{6-[(S)-1-(2-methyl-2H-pyrazole-3-carbonyl)-pyrrolidin-3-yloxy]-2,3-dihydro-enzo[1,4]oxazin-4-yl}-nicotinonitrile] | 374 | 13 |
| COc1ncc(N2CCOc3ccc(O[C@H]4CCN(C(=O)CN(C)C)C4)cc32)cc1C#N [Example D6, 5-{6-[(S)-1-(2-Dimethylamino-acetyl)-pyrrolidin-3-yloxy]-2,3-dihydro-benzo[1,4]oxazin-4-yl}-2-methoxy-nicotinonitrile] | 650 | 9 |
| COc1cc(N2CCOc3ccc(O[C@H]4CCN(C(=O)CCO)C4)cc32)cnc1Cl [Example B57, 1-{(S)-3-[4-(6-Chloro-5-methoxy-pyridin-3-yl)-3,4-dihydro-2H-benzo[1,4]oxazin-6-yloxy]-pyrrolidin-1-yl}-3-hydroxy-propan-1-one] | 2270 | 95 |

More lines, in order of falling IC50 (PI3K alpha), values ahead:

| IC50 (PI3K alpha) [nM] | IC50 (PI3K delta) [nM] | Compound |
| --- | --- | --- |
| 6880 | 317 | CCC(=O)N1CC[C@H](Oc2ccc3c(c2)N(c2ccc(C)c(S(=O)(=O)N4CCCCC4)c2)CCO3)C1 [Example A24, 1-((S)-3-{4-[4-Methyl-3-(piperidine-1-sulfonyl)-phenyl]-3,4-dihydro-2H-benzo[1,4]oxazin-6-yloxy}-pyrrolidin-1-yl)-propan-1-one] |
| 704 | 25 | COc1ncc(N2CCOc3ccc(O[C@H]4CCN(C(=O)[C@@H]5CCNC5)C4)cc32)cc1C#N [Example D40, 2-methoxy-5-{6-[(S)-1-((R)-pyrrolidine-3-carbonyl)-pyrrolidin-3-yloxy]-2,3-dihydro-benzo[1,4]oxazin-4-yl}-nicotinonitrile] |
| 383 | 17 | COc1ncc(N2CCOc3ccc(O[C@H]4CCN(C(=O)c5cnccn5)C4)cc32)cc1C#N [Example C15, 2-Methoxy-5-{6-[(S)-1-(pyrazine-2-carbonyl)-pyrrolidin-3-yloxy]-2,3-dihydro-benzo[1,4]oxazin-4-yl}-nicotinonitrile] |
| 88 | 6 | COc1ncc(N2CCOc3ccc(O[C@H]4CCN(C(=O)C5CCOCC5)C4)cc32)cc1C(F)F [Example B120, {(S)-3-[4-(5-Difluoromethyl-6-methoxy-pyridin-3-yl)-3,4-dihydro-2H-benzo[1,4]oxazin-6-yloxy]-pyrrolidin-1-yl}-(tetrahydro-pyran-4-yl)-methanone] |
